Measured values: patent US20120190613A1, “ECHINOCANDIN DERIVATIVES” (priority 2009, published 2012)
Converted amounts (≈) assume the structure as drawn. Marks after values point to notes of the source that are not given here.

How the values were obtained:
[1] = tested on: C. parapsilosis 630 ATCC 90018; test: MIC by broth microdilution against C. parapsilosis; assay type: cell-based; details: 48 hr
Protocol: (§1) MIC values (μg/mL) of echinocandin class compounds of the invention against various Candida and Aspergillus species were obtained as follows. Test organisms were obtained from the American Type Culture Collection (Manassas, Va.). The isolates were maintained at −80 ° C., then thawed and sub-cultured one day prior to testing (seven days for Aspergillus strains).
(§2) The mouse serum was heat-inactivated for 30 minutes at 56° C., and filtered through a 0.2 μm low protein binding filter unit prior to use.
(§3) MIC values were determined using broth microdilution. The wells of the daughter plates ultimately contained 180 μL of RPMI-1640 medium with and without mouse serum, 10 μL of drug solution, and 10 μL of yeast or fungal inoculum.
(§4) Prior to susceptibility testing, fungal isolates were removed from frozen storage, thawed at room temperature, and subcultured to Potato Dextrose Agar. The Candida strains were incubated overnight at 35° C. and the Aspergillus strains for 7 days at 25° C. Yeast colonies were inoculated into sterile saline and adjusted to the turbidity of a 0.5 McFarland standard. Inoculums from Aspergillus strains were prepared by washing the surface of an agar slant with 1 mL of sterile saline containing 0.05% of Tween 20. The resulting colloidial suspensions were adjusted to an optical density of 0.09 to 0.11 at λ 625 nm.
(§5) Both the yeast and filamentous fungus suspensions were further diluted 1:100 in RPMI-1640 medium and dispensed into sterile reservoirs and used to inoculate the daughter plates. 10 μL of standardized inoculum was delivered into each well. This yielded a final cell concentration in the daughter plates of approximately 2.5×10^3 colony-forming units/mL. Plates were incubated at 35° C. for approximately 48 hr.
(§6) Following incubation, microplates were viewed from the bottom using a plate viewer.

[2] = tested on: C. albicans 104 ATCC 90028; test: MIC by broth microdilution against C. albicans; assay type: cell-based; details: 48 hr
Protocol: as §1, §2, §3, §4, §5, §6

A. flavus 626 ATCC 64025 = test: MIC by broth microdilution against A. flavus; assay type: cell-based; details: 48 hr, growth reduction of 50%
Protocol: as §1, §2, §3, §4, §5, §6

C. albicans R303 = test: Mouse candidiasis infection model, C. albicans density in kidneys; assay type: in vivo, female CD-1 mice; details: Second run, 5 mg/kg IP 2 hr after infection, kidneys at 24 hr
Protocol: The objective of these studies was to evaluate the efficacy of test compounds in the mouse candidiasis infection model.
The strain, C. albicans R303 was transferred from frozen storage onto Sabauroud dextrose agar (SDA) plates and grown for ˜24 hr at 35° C. The inoculum was prepared by transferring colonies from the plate to phosphate buffered saline (PBS) and the concentration adjusted to 10^6 CFU/mL with the aid of a spectrophotometer. The stock was diluted 1:9 to prepare the inoculum. Prior to each run the concentration was verified using the dilution plate count method.
The female CD-1 mice used in this study were obtained from Charles River Laboratories, Portage, MI. The animals were approximately seven-weeks-old at the start of the study and weighed about 16-26 g.
In one approach, mice were made neutropenic with IP injections of cyclophosphamide (150 mg/kg in 10 mL/kg) at 4 and 1 day before inoculation. Each animal was inoculated with the appropriate concentration by injecting 0.1 mL of inoculum into a tail vein. The test compounds were administered IP at 2 hr after infection.
The kidneys were collected from four mice in control group 1 (untreated) at 2 hr after infection, and from the remaining mice in the study at 24 hr after infection. Kidneys were removed aseptically from each mouse and were combined in a sterile tube. An aliquot (2 mL) of sterile PBS was added to each tube and the contents homogenized with a tissue homogenizer (Polytron 3100). Serial dilutions of the tissue homogenates were conducted and 0.1 mL aliquots were spread on SDA plates and the plates incubated at 35° C. overnight. The CFU/kidneys were determined from colony counts. Data were analyzed using one-way ANOVA with the Tukey-Kramer Multiple Comparisons Test (GraphPad InStat version 3.06, GraphPad Software, San Diego, Calif.).
Treatments were administered at 2 hr after infection with 2.1×10^5 CFU/mL of the organism. Data are the means of four mice.
Treatments were administered at 2 hr after infection with 6.4×10^5 CFU/mL of the organism. Data are the means of four mice.
Treatments were administered at 2 hr after infection with 3.8×10^5 CFU/mL of the organism. Data are the means of four mice.
Treatments were administered at 2 hr after infection with 3.8×10^5 CFU/rnL of the organism. Data are the means of four mice.

SMILES	MIC ([1]; 0% mouse serum) [µg/mL]	MIC ([1]; 50% mouse serum) [µg/mL]	MIC ([2]; 0% mouse serum) [µg/mL]	MIC ([2]; 50% mouse serum) [µg/mL]	MIC (A. flavus 626 ATCC 64025; 0% mouse serum) [µg/mL]	MIC (A. flavus 626 ATCC 64025; 50% mouse serum) [µg/mL]	Difference from 24-hr control (C. albicans R303)	Mean log10 CFU/kidneys (±SD) (C. albicans R303) [log10 CFU/kidneys]
CCC(C)CC(C)CCCCCCCCC(=O)NC1CC(O)C(NCCNC(=O)CCCCCCCOCCOCCOCCOCCOCCOCCOCCOC)NC(=O)C2C(O)CCN2C(=O)C(C(O)CCN)NC(=O)C(C(O)C(O)c2ccc(O)cc2)NC(=O)C2CC(O)CN2C(=O)C(C(C)O)NC1=O (stereo not drawn) [Compound 3]	>16	>16	2 (≈ 1.28 µM)	>16	2 (≈ 1.28 µM)	8 (≈ 5.14 µM)		
CCCCCOc1ccc(-c2ccc(-c3ccc(C(=O)NC4CC(O)C(OCCOCCOCCOCCOCCOCCOCCOC)NC(=O)C5C(O)C(C)CN5C(=O)C(C(C)O)NC(=O)C(C(O)C(O)c5ccc(O)cc5)NC(=O)C5CC(O)CN5C(=O)C(C(C)O)NC4=O)cc3)cc2)cc1 (stereo not drawn) [Compound 6]	>16	>16	2 (≈ 1.37 µM)	8 (≈ 5.47 µM)	0.125 (≈ 0.0855 µM)	0.5 (≈ 0.342 µM)		
CCC(C)CC(C)CCCCCCCCC(=O)NC1CC(O)C(OCCOCCOCCOCCOC)NC(=O)C2C(O)CCN2C(=O)C(C(O)CC(N)=O)NC(=O)C(C(O)C(O)c2ccc(O)cc2)NC(=O)C2CC(O)CN2C(=O)C(C(C)O)NC1=O (stereo not drawn) [Compound 8]	>16	>16	8 (≈ 6.37 µM)	>16	0.5 (≈ 0.398 µM)	2 (≈ 1.59 µM)		
CCC(C)CC(C)CCCCCCCCC(=O)NC1CC(O)C(OCCOCCOCCOCCOCCOCCOCCOC)NC(=O)C2C(O)CCN2C(=O)C(C(O)CC(N)=O)NC(=O)C(C(O)C(O)c2ccc(O)cc2)NC(=O)C2CC(O)CN2C(=O)C(C(C)O)NC1=O (stereo not drawn) [Compound 9]	>16	>16	>16	>16	2 (≈ 1.44 µM)	8 (≈ 5.77 µM)		
CCC(C)CC(C)CCCCCCCCC(=O)NC1CC(O)C(NCCNC(=O)OCCOCCOCCOC)NC(=O)C2C(O)CCN2C(=O)C(C(O)CCN)NC(=O)C(C(O)C(O)c2ccc(O)cc2)NC(=O)C2CC(O)CN2C(=O)C(C(C)O)NC1=O (stereo not drawn) [Compound 12]							−0.78 ns log10 CFU/kidneys	4.42 ± 0.14
CCC(C)CC(C)CCCCCCCCC(=O)NC1CC(O)C(NCCNCCOC)NC(=O)C2C(O)CCN2C(=O)C(C(O)CCN)NC(=O)C(C(O)C(O)c2ccc(O)cc2)NC(=O)C2CC(O)CN2C(=O)C(C(C)O)NC1=O (stereo not drawn) [Compound 13]							−4.55*** log10 CFU/kidneys	0.65 ± 0.75
CCC(C)CC(C)CCCCCCCCC(=O)NC1CC(O)C(NCCN)NC(=O)C2C(O)CCN2C(=O)C(C(O)CCNC(=O)OCCOC)NC(=O)C(C(O)C(O)c2ccc(O)cc2)NC(=O)C2CC(O)CN2C(=O)C(C(C)O)NC1=O (stereo not drawn) [Compound 14]							−1.13 ns log10 CFU/kidneys	4.07 ± 0.17
